Laboratory results taken from US10076116B2, “N-cycloalkyl-N-(biheterocyclymethylene)-(thio)carboxamide derivatives” (BAYER CROPSCIENCE AKTIENGESELLSCHAFT, priority 2013, dated 2018).

What was measured:
Alternaria brassicae = experiment: In vivo preventive test on Alternaria brassicae (leaf spot on radish); details: for efficacy: 500 ppm of active ingredient, radish plants sprayed 24 hours before inoculation, evaluated 6 days after inoculation; for Efficacy (Table A2) / Efficacy (Table A1): dose 500 ppm, radish, 6 days after inoculation
Method: Example A: In Vivo Preventive Test on Alternaria brassicae (Leaf Spot on Radish) Solvent: 5% by volume of Dimethyl sulfoxide • 10% by volume of Acetone Emulsifier: 1 μL of TWEEN® 80 (Polyoxyethylene (20) sorbitan monooleate) per mg of active ingredient The active ingredients are made soluble and homogenized in a mixture of Dimethyl sulfoxide/Acetone/TWEEN® 80 and then diluted in water to the desired concentration. The young plants of radish are treated by spraying the active ingredient prepared as described above. Control plants are treated only with an aqueous solution of Acetone/Dimethyl sulfoxide/TWEEN® 80. After 24 hours, the plants are contaminated by spraying the leaves with an aqueous suspension of Alternaria brassicae spores. The contaminated radish plants are incubated for 6 days at 20° C. and at 100% relative humidity. The test is evaluated 6 days after the inoculation. 0% means an efficacy which corresponds to that of the control plants while an efficacy of 100% means that no disease is observed.

Pyrenophora teres = experiment: In vivo preventive test on Pyrenophora teres (net blotch on barley); details: for Efficacy (Table D1): dose 500 ppm, barley; for efficacy: 500 ppm of active ingredient, barley plants, evaluated 14 days after inoculation
Method: Example D: In Vivo Preventive Test on Pvrenophora Teres (Net Blotch on Barley) Solvent: 5% by volume of Dimethyl sulfoxide • 10% by volume of Acetone Emulsifier: 1 μL of TWEEN® 80 per mg of active ingredient The active ingredients are made soluble and homogenized in a mixture of Dimethyl sulfoxide/Acetone/TWEEN® 80 and then diluted in water to the desired concentration. The young plants of barley are treated by spraying the active ingredient prepared as described above. Control plants are treated only with an aqueous solution of Acetone/Dimethyl sulfoxide/TWEEN® 80. After 24 hours, the plants are contaminated by spraying the leaves with an aqueous suspension of Pyrenophora teres spores. The contaminated barley plants are incubated for 48 hours at 20° C. and at 100% relative humidity and then for 12 days at 20° C. and at 70-80% relative humidity. The test is evaluated 14 days after the inoculation. 0% means an efficacy which corresponds to that of the control plants while an efficacy of 100% means that no disease is observed.

[1] = log P by HPLC on reversed-phase column (C 18), EEC Directive 79/831 Annex V.A8; format: physicochemical; details: HPLC C 18, 40° C., 0.1% aqueous formic acid and acetonitrile, gradient 10% to 90% acetonitrile
Method: In table 1, the log P values were determined in accordance with EEC Directive 79/831 Annex V.A8 by HPLC (High Performance Liquid Chromatography) on a reversed-phase column (C 18), using the method described below: Temperature: 40° C.; Mobile phases: 0.1% aqueous formic acid and acetonitrile; linear gradient from 10% acetonitrile to 90% acetonitrile. Calibration was carried out using unbranched alkan-2-ones (comprising 3 to 16 carbon atoms) with known log P values (determination of the log P values by the retention times using linear interpolation between two successive alkanones). lambda-max-values were determined using UV-spectra from 200 nm to 400 nm and the peak values of the chromatographic signals.

Botrytis cinerea = experiment: In vivo preventive test on Botrytis cinerea (grey mould); details: gherkin
Method: Example B: In Vivo Preventive Test Botrvtis Cinerea (Grey Mould) Solvent: 5% by volume of Dimethyl sulfoxide • 10% by volume of Acetone Emulsifier: 1 μL of TWEEN® 80 per mg of active ingredient The active ingredients are made soluble and homogenized in a mixture of Dimethyl sulfoxide/Acetone/TWEEN® 80 and then diluted in water to the desired concentration. The young plants of gherkin are treated by spraying the active ingredient prepared as described above. Control plants are treated only with an aqueous solution of Acetone/Dimethyl sulfoxide/TWEEN® 80. After 24 hours, the plants are contaminated by spraying the leaves with an aqueous suspension of Botrytis cinerea spores. The contaminated gherkin plants are incubated for 4 to 5 days at 17° C. and at 90% relative humidity. The test is evaluated 4 to 5 days after the inoculation. 0% means an efficacy which corresponds to that of the control plants while an efficacy of 100% means that no disease is observed.

Uromyces appendiculatus = experiment: In vivo preventive test on Uromyces appendiculatus (bean rust)
Method: Example G: In Vivo Preventive Test on Uromvces Appendiculatus (Bean Rust) Solvent: 5% by volume of Dimethyl sulfoxide • 10% by volume of Acetone Emulsifier: 1 μL of TWEEN® 80 per mg of active ingredient The active ingredients are made soluble and homogenized in a mixture of Dimethyl sulfoxide/Acetone/TWEEN® 80 and then diluted in water to the desired concentration. The young plants of bean are treated by spraying the active ingredient prepared as described above. Control plants are treated only with an aqueous solution of Acetone/Dimethyl sulfoxide/TWEEN® 80. After 24 hours, the plants are contaminated by spraying the leaves with an aqueous suspension of Uromyces appendiculatus spores. The contaminated bean plants are incubated for 24 hours at 20° C. and at 100% relative humidity and then for 10 days at 20° C. and at 70-80% relative humidity. The test is evaluated 11 days after the inoculation. 0% means an efficacy which corresponds to that of the control plants while an efficacy of 100% means that no disease is observed.

Puccinia recondita = experiment: In vivo preventive test on Puccinia recondita (brown rust on wheat); details: wheat, compounds of this patent
Method: Example C: In Vivo Preventive Test on Puccinia recondita (Brown Rust on Wheat) […]
The young plants of wheat are treated by spraying the active ingredient prepared as described above. […]
After 24 hours, the plants are contaminated by spraying the leaves with an aqueous suspension of Puccinia recondita spores. The contaminated wheat plants are incubated for 24 hours at 20° C. and at 100% relative humidity and then for 10 days at 20° C. and at 70-80% relative humidity.
The test is evaluated 11 days after the inoculation. 0% means an efficacy which corresponds to that of the control plants while an efficacy of 100% means that no disease is observed.

For `Cn1nc(C(F)F)c(C(=O)N(Cc2sc3ccccc3c2-c2coc3ccccc23)C2CC2)c1F` [I.53, N-{[3-(1-benzofuran-3-yl)-1-benzothiophen-2-yl]methyl}-N-cyclopropyl-3-(difluoromethyl)-5-fluoro-1-methyl-1H-pyrazole-4-carboxamide], the efficacy (Alternaria brassicae; listed as 1.53) was “total protection”, the “Efficacy (Table A2)” value (Alternaria brassicae) was 100% and the “Efficacy (Table D1)” value (Pyrenophora teres) was 83%. It also gave a chromatographic logP ([1]; reversed-phase HPLC column (C 18)) of 4.61.
With `Cn1nc(C(F)F)c(C(=O)N(Cc2nn(-c3ccccc3)cc2-c2csc3ccccc23)C2CC2)c1F` [I.03] the “Efficacy (Table A1)” value (Alternaria brassicae) was 93% and the logP [1] was 4.53.
With `Cn1nc(C(F)F)c(C(=O)N(Cc2ncc(C(F)(F)F)cc2-c2ccnc3cc(Cl)ccc23)C2CC2)c1F` [I.29] the “Efficacy (Table B1)” value (Botrytis cinerea; dose 100 ppm) was 39%, the “Efficacy (Table B1)” value (Botrytis cinerea; dose 500 ppm) was 83% and the logP [1] was 3.78. For the same compound, the “Efficacy (Table G1)” value (Uromyces appendiculatus; dose 100 ppm) was 67% and the “Efficacy (Table G1)” value (Uromyces appendiculatus; dose 500 ppm) was 100%.
For `Cn1nc(C(F)F)c(C(=O)N(Cc2ncc(C(F)(F)F)cc2-c2coc3ccccc23)C2CC2)c1F` [I.31], the “Efficacy (Table B1)” value (Botrytis cinerea; dose 100 ppm) was 100%, the “Efficacy (Table B1)” value (Botrytis cinerea; dose 500 ppm) was 100% and the “Efficacy at 100 ppm (Table C1)” value (Puccinia recondita; 100 ppm) was 88%. For the same compound, the “Efficacy at 500 ppm (Table C1)” value (Puccinia recondita; 500 ppm) was 94%, the logP [1] was 4.16 and the “Efficacy (Table G1)” value (Uromyces appendiculatus; dose 100 ppm) was 78%. The “Efficacy (Table G1)” value (Uromyces appendiculatus; dose 500 ppm) was 97%.
For `Cn1nc(C(F)F)c(C(=O)N(Cc2nn(-c3ccccc3)cc2-c2ccc3c(ccn3C)c2)C2CC2)c1F` [I.01], the “Efficacy (Table A1)” value (Alternaria brassicae) was 71% and the logP [1] was 4.16.
In the case of `Cn1nc(C(F)F)c(C(=O)N(Cc2ncc(C(F)(F)F)cc2-c2cccs2)C2CC2)c1F` [I.19], the “Efficacy (Table B1)” value (Botrytis cinerea; dose 100 ppm) is reported as 100%, the “Efficacy (Table B1)” value (Botrytis cinerea; dose 500 ppm) is reported as 95% and the logP [1] is reported as 3.89. The “Efficacy (Table G1)” value (Uromyces appendiculatus; dose 100 ppm) was 100% and the “Efficacy (Table G1)” value (Uromyces appendiculatus; dose 500 ppm) was 100%.
In the case of `COc1cccc(-c2c(CN(C(=O)c3c(C(F)F)nn(C)c3F)C3CC3)sc3ccccc23)n1` [CMP5, N-cyclopropyl-3-(difluoromethyl)-5-fluoro-N-{[3-(6-methoxypyridin-2-yl)-1-benzothiophen-2-yl]methyl}-1-methyl-1H-pyrazole-4-carboxamide], the “Efficacy (Table A2)” value (Alternaria brassicae) is reported as 0%, the efficacy (Pyrenophora teres) is reported as “no protection” and the “Efficacy (Table D1)” value (Pyrenophora teres) is reported as 0%.
With `Cn1nc(C(F)F)c(C(=O)N(Cc2sc3ccccc3c2-c2cccnc2)C2CC2)c1F` [CMP4, N-cyclopropyl-3-(difluoromethyl)-5-fluoro-1-methyl-N-{[3-(pyridin-3-yl)-1-benzothiophen-2-yl]methyl}-1H-pyrazole-4-carboxamide, reference compound] the “Efficacy (Table A2)” value (Alternaria brassicae) was 43%.
For `Cn1nc(C(F)F)c(C(=O)N(Cc2sc3ccccc3c2-c2ccncc2)C2CC2)c1F` [CMP6, N-cyclopropyl-3-(difluoromethyl)-5-fluoro-1-methyl-N-{[3-(pyridin-4-yl)-1-benzothiophen-2-yl]methyl}-1H-pyrazole-4-carboxamide], the efficacy (Pyrenophora teres) was “no protection” and the “Efficacy (Table D1)” value (Pyrenophora teres) was 0%.
For `Cn1nc(C(F)F)c(C(=O)N(Cc2nn(-c3ccccc3)cc2-c2cccnc2)C2CC2)c1F` [CMP1, N-cyclopropyl-3-(difluoromethyl)-5-fluoro-1-methyl-N-{[1-phenyl-4-(pyridin-3-yl)-1H-pyrazol-3-yl]methyl}-1H-pyrazole-4-carboxamide, reference compound], the efficacy (Alternaria brassicae) was “no protection” and the “Efficacy (Table A1)” value (Alternaria brassicae) was 0%.
